Patent publication US20010000177A1, “Novel class of thiomorpholino substituted thiazoles” (priority 1999, published 2001)
≈ marks a conversion by molar mass, not a printed value.

Legend:
Type in all cases: cell-based
[1] = system: Candida and Cryptococcus strains (organism not given); assay: Broth microdilution antifungal activity, Table II fourth MIC/MCC column pair; conditions: fourth column pair of Table II; for MIC = Minimum inhibitory concentration (50% Inhibition): 48 hrs, 35° C., YNB broth pH 7.0; for MCC = Minimum cytolytic concentration: subculture on SDA plate
Procedure: (§1) Organisms: Three strains of Candida (Candida parpsilosis, Candida tropicalis, Candida albicans-ATCC 36082) as well as Cryptococcus neoformans were used for the initial testing. […] All clinical strains used in this study were blood culture isolates from the Clinical Microbiology Laboratory of Harbor-UCLA Medical Center, Torrance, Calif. The organisms were maintained on Sabourahd Dextrose Agar slants at 4° C. For experimentation, singlet suspensions of each organism were prepared by growing the yeast overnight at 27° C. on a rotating drum in yeast-nitrogen base broth (YNB) with amino acids (Difco, Detroit, Mich.), pH 7.0 with 0.05M morpholinepropanesulfonic acid (MOPS). The suspension was then centrifuged and washed twice with 0.85% NaCl. This was followed by sonication of the washed cell suspension for 4s (Branson Sonifier, model 350, Danbury, Conn.). The singlet blastospores were counted in a hemocytometer and adjusted to the desired concentration in 0.85% NaCl.
(§2) Antifungal Activity: The antifungal activity of the compounds and Fluconazole against the Candida and Cryptococcus strains were determined using a modification of a broth microdilution technique. Test compounds were diluted in DMSO to a 1.0 mg/ml ratio then diluted to 64 μg/ml in YNB broth, pH 7.0 with MOPS (Fluconazole was used as the control). This was to provide a working solution of each compound. Using a 96-well plate, wells 1 and 3 through 12 were prepared with YNB broth, […] dilutions of the compound solution were made in wells 2 through 11 (concentration ranges were 64 to 0.125 μg/ml). Well one served as a sterility control and blank for the spectrophotometric assays. Well twelve served as a growth control. The microtiter plates were inoculated with 10 ul in each of well 2 through 11 (final inoculum size was 10^4 organisms/ml). Inoculated plates were incubated for 48 hrs., at 35° C. The MIC values were determined spectrophotometrically by measuring the absorbance at 420 nm (Automatic Microplate Reader, DuPont Instruments, Wilmington, Del.) after agitation of the plates for 2 min with a vortex-mixer (Vorte-Genie 2 Mixer, Scientific Industries, Inc., Bolemia, N.Y.). […] With the turbidity assay this was defined as the lowest drug concentration at which turbidity in the well was <50% of the control (IC50) Minimal Cytolytic Concentrations (MCC) were determined by subculturing all wells from the 96-well plate onto a Sabourahd Dextrose Agar (SDA) plate and incubated for 1 to 2 days at 35° C. and the viability was checked.

[2] = system: Candida and Cryptococcus strains (organism not given); assay: Broth microdilution antifungal activity, Table II second MIC/MCC column pair; conditions: second column pair of Table II; for MIC = Minimum inhibitory concentration (50% Inhibition): 48 hrs, 35° C., YNB broth pH 7.0; for MCC = Minimum cytolytic concentration: subculture on SDA plate
Procedure: (§3) Organisms: Three strains of Candida (Candida parpsilosis, Candida tropicalis, Candida albicans-ATCC 36082) as well as Cryptococcus neoformans were used for the initial testing. Active compounds were then tested against fluconazole resistant Candida albicans, Candida krusei, Torulopsis glabrata, and Cryptococcus neoformans along with Sporothrix shenkii and Aspergillus flavus in the secondary round of testing. All clinical strains used in this study were blood culture isolates from the Clinical Microbiology Laboratory of Harbor-UCLA Medical Center, Torrance, Calif. The organisms were maintained on Sabourahd Dextrose Agar slants at 4° C. For experimentation, singlet suspensions of each organism were prepared by growing the yeast overnight at 27° C. on a rotating drum in yeast-nitrogen base broth (YNB) with amino acids (Difco, Detroit, Mich.), pH 7.0 with 0.05M morpholinepropanesulfonic acid (MOPS). The suspension was then centrifuged and washed twice with 0.85% NaCl. This was followed by sonication of the washed cell suspension for 4s (Branson Sonifier, model 350, Danbury, Conn.). The singlet blastospores were counted in a hemocytometer and adjusted to the desired concentration in 0.85% NaCl.
as §2

[3] = system: Candida and Cryptococcus strains (organism not given); assay: Broth microdilution antifungal activity, Table II first MIC/MCC column pair; conditions: first column pair of Table II; for MIC = Minimum inhibitory concentration (50% Inhibition): 48 hrs, 35° C., YNB broth pH 7.0; for MCC = Minimum cytolytic concentration: subculture on SDA plate
Procedure: as §1, §2

[4] = system: Candida and Cryptococcus strains (organism not given); assay: Broth microdilution antifungal activity, Table II third MIC/MCC column pair; conditions: for MIC = Minimum inhibitory concentration (50% Inhibition): 48 hrs, 35° C., YNB broth pH 7.0; for MCC = Minimum cytolytic concentration: subculture on SDA plate
Procedure: as §3, §2

MIC = Minimum inhibitory concentration (50% Inhibition) [1] [µg/mL] | MIC = Minimum inhibitory concentration (50% Inhibition) [2] [µg/mL] | MIC = Minimum inhibitory concentration (50% Inhibition) [3] [µg/mL] | MIC = Minimum inhibitory concentration (50% Inhibition) [4] [µg/mL] | SMILES | MCC = Minimum cytolytic concentration [1] [µg/mL] | MCC = Minimum cytolytic concentration [2] [µg/mL] | MCC = Minimum cytolytic concentration [3] [µg/mL] | MCC = Minimum cytolytic concentration [4] [µg/mL]
0.125 (≈ 0.34 µM) | 1 (≈ 2.72 µM) | 1 (≈ 2.72 µM) | 2 (≈ 5.44 µM) | CCCN(C)Cc1ccc(-c2csc(-c3ccc([N+](=O)[O-])cc3)n2)cc1 [Example 1o, 2-(4′-nitrophenyl)-4-[4″-(N-methyl-N-propylaminomethyl)phenyl]thiazole] | 2 | 4 | 4 | 32
4 (≈ 10.3 µM) | 4 (≈ 10.3 µM) | 4 (≈ 10.3 µM) | 4 (≈ 10.3 µM) | CN(C)CCSCc1ccc(-c2csc(-c3ccc(Cl)cc3)n2)cc1 [Example 1rr, 2-(4′-chlorophenyl)-4-[4″-[(2-dimethylaminoethyl-thio)methyl]phenyl]thiazole] | 8 | 8 | 8 | 8
2 (≈ 5.38 µM) | 4 (≈ 10.8 µM) | 4 (≈ 10.8 µM) | 2 (≈ 5.38 µM) | CNCCN(C)Cc1ccc(-c2csc(-c3ccc(Cl)cc3)n2)cc1 [Example 1tt, 2-(4′-chlorophenyl)-4-[4″-(N-methyl-N-(2-N-methylaminoethyl)-amino-methyl)phenyl]thiazole] | 4 | 16 | 16 | 16
4 (≈ 10.4 µM) | 4 (≈ 10.4 µM) | 8 (≈ 20.7 µM) | 4 (≈ 10.4 µM) | CN(C)CCN(C)Cc1ccc(-c2csc(-c3ccc(Cl)cc3)n2)cc1 [Example 1u, 2-(4′-chlorophenyl)-4-[4″-(N-methyl-N-(2-dimethylaminoethyl)aminomethyl)-phenyl]thiazole] | 4 | 4 | 8 | 4
2 (≈ 5.89 µM) | 1 (≈ 2.95 µM) | 1 (≈ 2.95 µM) | 1 (≈ 2.95 µM) | CN(C)Cc1ccc(-c2csc(-c3ccc([N+](=O)[O-])cc3)n2)cc1 [Example 1x, 2-(4′-nitrophenyl)-4-[4″-(dimethylaminomethyl)phenyl]thiazole] | 2 | 2 | 2 | 2
0.5 (≈ 1.44 µM) | 2 (≈ 5.76 µM) | 4 (≈ 11.5 µM) | 2 (≈ 5.76 µM) | CCCN(C)Cc1ccc(-c2csc(-c3ccc(C#N)cc3)n2)cc1 [Example 6e, 2-(4′-cyanophenyl)-4-[4″-(N-methyl-N-propylaminomethyl)phenyl]-thiazole] | 1 | 4 | 4 | 16
4 (≈ 9.79 µM) | 4 (≈ 9.79 µM) | 8 (≈ 19.6 µM) | 2 (≈ 4.9 µM) | CCCN(C)Cc1ccc(-c2csc(-c3ccc(C(F)(F)F)cc3F)n2)cc1 [Example 6f, 2-(2′-fluoro-4′-trifluoromethylphenyl)-4-[4″-(N-methyl-N-propylamino-methyl)phenyl]thiazole] | 8 | 8 | 16 | 8
4 (≈ 8.92 µM) | 4 (≈ 8.92 µM) | 8 (≈ 17.8 µM) | 8 (≈ 17.8 µM) | CCCN(C)Cc1ccc(-c2csc(-c3ccc(I)cc3)n2)cc1 [Example 6g, 2-(4′-iodophenyl)-4-[4″-(N-methyl-N-propylaminomethyl)phenyl]-thiazole] | 4 | 2 | 4 | 4
1 (≈ 2.52 µM) | 0.5 (≈ 1.26 µM) | 1 (≈ 2.52 µM) | 1 (≈ 2.52 µM) | CCCN(C)Cc1ccc(-c2csc(-c3ccc(OC)c([N+](=O)[O-])c3)n2)cc1 [Example 6k, 2-(4′-methoxy-3′-nitrophenyl)-4-[4″-(N-methyl-N-propylamino-methyl)phenyl]thiazole] | 1 | 2 | 2 | 2
0.25 (≈ 0.677 µM) | 0.25 (≈ 0.677 µM) | 0.5 (≈ 1.35 µM) | 0.25 (≈ 0.677 µM) | COc1ccc(-c2nc(-c3ccc(CN(C)C)cc3)cs2)cc1[N+](=O)[O-] [Example 6l, 2-(4′-methoxy-3′-nitrophenyl)-4-[4″-(dimethylaminomethyl)phenyl]thiazole] | 0.5 | 0.5 | 1 | 1
8 (≈ 25 µM) | 2 (≈ 6.26 µM) | 2 (≈ 6.26 µM) | 2 (≈ 6.26 µM) | CN(C)Cc1ccc(-c2csc(-c3cccc(C#N)c3)n2)cc1 [Example 6o, 2-(3′-cyanophenyl)-4-[4″-(dimethylaminomethyl)phenyl]thiazole] | 16 | 8 | 4 | >64
1 (≈ 2.62 µM) | 1 (≈ 2.62 µM) | 1 (≈ 2.62 µM) | 2 (≈ 5.24 µM) | CCCN(C)Cc1ccc(-c2csc(-c3ccc(C)c([N+](=O)[O-])c3)n2)cc1 [Example 6p, 2-(4′-methyl-3′-nitrophenyl)-4-[4″-(N-methyl-N-propylaminomethyl)-phenyl]thiazole] | 4 | 4 | 8 | 16
